Source: patent US20260108451A1, “COMPOSITIONS FOR THE MANAGEMENT OF HIRSUTISM” (priority 2022, published 2026)

System: Ornithine decarboxylase (ODC)
Test: Expression of ornithine decarboxylase (ODC) by flow cytometry in dermal papilla cells
Format: cell-based, human
Conditions: Control 26.8%
Description: Dermal papilla cells (DPC) were cultured in DMEM medium with 10% FBS and seeded in 96 well tissue culture plate for the test. 24 hrs post seeding, DPC were treated with the test sample Ar-Turmerone at graded concentrations and incubated for 48 hrs in 5% CO2 incubator at 37° C. After 48 hrs the cells were collected from each well. These cells were incubated with Fluorescein isothiocyanate (FITC) labelled Ornithine-de-carboxylase antibody. After being washed with sterile PBS, samples were resuspended in PBS (pH 7.4) and acquired directly on the Flow cytometer. A fluorescence trigger was set on the FITC (FL1) parameter of the gated DPC populations (10,000 events). Percentage decrease of ODC expression in test samples was calculated with respect to un-treated cells (control), (FIG. 1).

Compound: NCCCC(N)(C(=O)O)C(F)F (stereo not shown) [Eflornithine]
- % Expression of ODC at 100 μg/ml: 11.4%
